We go through one compound from ChEMBL document CHEMBL4420075, “Seriniquinones, melanoma-specific anticancer agents” (2016).

The structures appear in SMILES notation. Activity calls are given as the source filed them. No cut-off for these calls is given here.

Data set [1] relates to HCT-116. Nature of the data set: Induction of apoptosis in human HCT116 cells assessed as induction of caspase-3 cleavage at 3 to 30 uM incubated for 24 hrs by Western blot analysis. The class given is functional, cell-based.
In data set [2] the test system is HCT-116. As to the kind of experiment: Induction of cell cycle arrest in human HCT116 cells assessed as accumulation at S phase at 0.3 to 30 uM incubated for 18 to 24 hrs by propidium iodide staining based assay. The class given is functional.
Data set [3] relates to HCT-116. Nature of the data set: Reduction in cyclin D3 protein expression in human HCT116 cells at 3 to 30 uM incubated for 24 hrs by Western blot analysis. Type of data set: functional, cell-based. On the technique in general: Immunoblotting shows a protein as a band on a membrane.
The test system of data set [4] is HCT-116. Nature of the data set: Induction of autophagy in human HCT116 cells assessed as increase in of LC3B-II level incubated for 24 hrs by Western blot analysis. Type of data set: functional, cell-based.
Data set [5] relates to HCT-116. As to the kind of experiment: Reduction in cyclin D2 protein expression in human HCT116 cells at 3 to 30 uM incubated for 24 hrs by Western blot analysis. Type of data set: functional, cell-based.
Data set [6] is described as follows: Drug accumulation in human MALME-3M cells assessed as sub-cellular localization at 30 uM incubated for 1 hr by DAPI staining based. Type of data set: ADME, cell-based.
Data set [7] is described as follows: Drug accumulation in human HCT8 cells assessed as sub-cellular localization at 30 uM incubated for 1 hr by DAPI staining based. Type of data set: ADME, cell-based. The conditions noted are these: hct-8, 1 h.
A further data set concerns the target T1, Dermcidin (Homo sapiens) (UniProt P81605).
T1 sequence (whole entry): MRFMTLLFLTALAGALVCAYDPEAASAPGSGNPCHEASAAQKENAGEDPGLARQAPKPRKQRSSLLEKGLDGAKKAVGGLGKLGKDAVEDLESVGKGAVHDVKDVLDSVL
As to the kind of experiment: Covalent binding affinity to DCD-1L (unknown origin) at 50 uM incubated for 24 hrs by denatured SDS-PAGE gel electrophoresis.

Data set [8] can be described thus: Drug accumulation in human PC3 cells assessed as sub-cellular localization in endoplasmic reticulum at 30 uM incubated for 1 hr by time course imaging assay. The settings on record: pc-3, 1 h. The class given is ADME, subcellular.
Data set [9] in a line: Drug accumulation in human HCT116 cells assessed as sub-cellular localization in endoplasmic reticulum measured up to 9 hrs by ER-tracker-blue based confocal microscopy. The class given is ADME, subcellular. The conditions noted are these: hct-116, 9 h.
Data set [10] deals with HCT-116. As to the kind of experiment: Induction of apoptosis in human HCT116 cells assessed as induction of caspase-7 cleavage at 3 to 30 uM incubated for 24 hrs by Western blot analysis. Type of data set: functional, cell-based.
Data set [11] has as its system HCT-116. As to the kind of experiment: Induction of autophagy in human HCT116 cells assessed as increase in of LC3A-II level incubated for 24 hrs by Western blot analysis. Type of data set: functional, cell-based.
In data set [12] the test system is HCT-116. As to the kind of experiment: Reduction in cyclin D1 protein expression in human HCT116 cells at 3 to 30 uM incubated for 24 hrs by Western blot analysis. Type of data set: functional, cell-based.
Data set [13] can be described thus: Drug accumulation in human PC3M cells assessed as sub-cellular localization at 30 uM incubated for 1 hr by DAPI staining based. The class given is ADME, cell-based. The settings on record: pc-3m.
The nature of data set [14]: Drug accumulation in human HCT116 cells assessed as sub-cellular localization at 5 uM incubated for 1 hr by DAPI staining based. The class given is ADME, cell-based. The settings on record: hct-116, 1 h.
Data set [15] is described as follows: Drug accumulation in human MALME-3M cells assessed as sub-cellular localization in autophagosomes measured after 6 hrs by dansyl-cadaverine based confocal microscopy. The class given is ADME, subcellular, Autophagosome.
The nature of data set [16]: Drug accumulation in human SF295 cells assessed as sub-cellular localization at 30 uM incubated for 1 hr by DAPI staining based. The class given is ADME, cell-based. The settings on record: sf-295, 1 h.
A short description of data set [17]: Drug accumulation in human HCT116 cells assessed as sub-cellular localization in autophagosomes measured after 6 hrs by dansyl-cadaverine based confocal microscopy. The settings on record: hct-116, 6 h. Type of data set: ADME, subcellular, Autophagosome.
The nature of data set [18]: Drug accumulation in human MALME-3M cells assessed as sub-cellular localization in endoplasmic reticulum measured up to 9 hrs by ER-tracker-blue based confocal microscopy. Type of data set: ADME, subcellular.
Data set [19] relates to HCT-116. As to the kind of experiment: Induction of DNA fragmentation in human HCT116 cells at 0.3 to 30 uM incubated for 24 hrs by FACS analysis. The class given is functional, cell-based.
Another data set deals with PC-3. As to the kind of experiment: Induction of auto-phagocytosis in human PC3 cells at 30 uM incubated for 1 hr by time course imaging assay. The class given is functional, cell-based.
Data set [20] deals with HCT-116. Nature of the data set: Induction of apoptosis in human HCT116 cells assessed as induction of PARP cleavage at 3 to 30 uM incubated for 24 hrs by Western blot analysis. The class given is functional, cell-based.
Data set [21] has as its system HCT-116. As to the kind of experiment: Induction of apoptosis in human HCT116 cells assessed as induction of caspase-9 cleavage at 3 to 30 uM incubated for 24 hrs by Western blot analysis. Type of data set: functional, cell-based.

Consider `O=c1c2ccccc2c(=O)c2c1sc1c(=O)c3ccccc3c(=O)c12`, for which the result in the data set with HCT-116 [1], in the data set with HCT-116 [3], with HCT-116 [5], at Dermcidin (Homo sapiens), in the data set on HCT-116 [10] and in the data set on HCT-116 [12] was Active. For the same compound, the outcome in the data set with PC-3, in the data set with HCT-116 [20] and with HCT-116 [21] was Active. The Activity entry in the data set with HCT-116 [2], in the data set on HCT-116 [4], with HCT-116 [11] and with HCT-116 [19] was “Dose-dependent effect” in each case. The Drug uptake result in data set [6], in data set [7], in data set [8], in data set [9], in data set [13] and in data set [14] was “Active” throughout. Moreover, the Drug uptake entry in data set [15], in data set [16], in data set [17] and in [18] was “Active” each time.
